Assay [1] relates to human GB cells (PD-GB4, U251, PD-GB 1, PD-GB3). Put plainly: 3D spheroid invasion in Matrigel, human GB cells co-cultured with human microglia. The class given is cell-based. The procedure:
(§1) Tumor spheroids. Tumor spheroids were prepared from mCherry/iRFP/GFP-labeled patient-derived, human U251 or murine GB cells (GL261, iAGR53, PNp53, EGFRviii-shP16), either alone or co-cultured with unlabeled primary human/murine microglia (4:1 ratio), using our modified hanging-drop method, as we previously described. For assessment of cell invasion, GB spheroids (4,000 cells/sphere) were embedded in Matrigel (Corning), seeded in a 96-well plate, and incubated with complete DMEM or complete DMEM supplemented with SELPi (0.5 µM). […] For FACS analysis, GB spheroids (8,000 cells/sphere) were embedded in Matrigel, seeded in a 12-well plate, and treated with complete DMEM, 0% serum microglia medium or microglia CM for 24-48 h. Cells were then recovered using Cell Recovery Solution (Corning) and further analyzed by FACS.

The next assay deals with T1, E-Selectin (Homo sapiens, UniProt P16581).
T1 sequence (P16581 22-610): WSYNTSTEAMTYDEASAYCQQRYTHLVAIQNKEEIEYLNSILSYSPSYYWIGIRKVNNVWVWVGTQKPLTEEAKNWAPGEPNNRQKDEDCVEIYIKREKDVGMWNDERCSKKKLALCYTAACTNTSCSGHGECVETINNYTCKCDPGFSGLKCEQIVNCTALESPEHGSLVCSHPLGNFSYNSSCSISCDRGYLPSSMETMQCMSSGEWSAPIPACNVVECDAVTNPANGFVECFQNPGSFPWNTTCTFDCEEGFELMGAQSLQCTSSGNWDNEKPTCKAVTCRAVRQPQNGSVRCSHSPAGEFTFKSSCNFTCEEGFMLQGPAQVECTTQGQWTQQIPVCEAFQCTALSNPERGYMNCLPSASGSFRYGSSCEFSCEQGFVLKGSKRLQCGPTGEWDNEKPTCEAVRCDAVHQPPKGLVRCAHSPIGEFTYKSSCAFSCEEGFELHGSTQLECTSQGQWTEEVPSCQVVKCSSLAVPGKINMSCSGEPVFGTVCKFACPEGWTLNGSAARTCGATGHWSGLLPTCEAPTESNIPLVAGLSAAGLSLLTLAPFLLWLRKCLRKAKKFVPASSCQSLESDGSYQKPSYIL
The settings on record: cited from earlier work.

The target of another assay is T2, P-Selectin (Homo sapiens, UniProt P16109).
T2 sequence (P16109 42-830): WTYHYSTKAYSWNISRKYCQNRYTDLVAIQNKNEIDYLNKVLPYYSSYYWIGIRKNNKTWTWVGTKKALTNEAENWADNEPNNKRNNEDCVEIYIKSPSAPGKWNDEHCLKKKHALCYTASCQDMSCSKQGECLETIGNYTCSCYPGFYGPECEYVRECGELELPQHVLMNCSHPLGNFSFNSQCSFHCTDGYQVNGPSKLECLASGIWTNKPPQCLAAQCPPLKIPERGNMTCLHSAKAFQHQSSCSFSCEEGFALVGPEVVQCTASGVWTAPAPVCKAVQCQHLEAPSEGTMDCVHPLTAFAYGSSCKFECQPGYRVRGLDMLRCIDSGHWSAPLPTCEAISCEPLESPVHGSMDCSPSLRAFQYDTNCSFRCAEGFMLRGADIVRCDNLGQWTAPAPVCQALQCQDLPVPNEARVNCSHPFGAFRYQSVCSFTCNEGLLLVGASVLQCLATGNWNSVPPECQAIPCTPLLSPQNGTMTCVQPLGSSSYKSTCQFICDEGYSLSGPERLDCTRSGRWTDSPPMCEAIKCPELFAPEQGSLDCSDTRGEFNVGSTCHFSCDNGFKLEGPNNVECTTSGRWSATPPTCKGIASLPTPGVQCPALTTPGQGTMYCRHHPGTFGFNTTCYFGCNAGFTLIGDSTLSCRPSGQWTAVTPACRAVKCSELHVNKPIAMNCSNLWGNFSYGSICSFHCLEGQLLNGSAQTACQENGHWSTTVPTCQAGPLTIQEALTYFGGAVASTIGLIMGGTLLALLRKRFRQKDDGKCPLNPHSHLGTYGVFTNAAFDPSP
The settings on record: cited from earlier work.

The test system of a further assay is primary human microglia. Put plainly: Real-time PCR gene expression (ARG1, iNOS, IL-10, TGF-β) in microglia treated with rSELP. The class given is cell-based. The settings on record: added on top of rSELP; SELPi 0.5 µM, antibodies 2.5 µg/ml, 48 h. How it is done: To evaluate microglial expression of IL-10 TGF-β, ARG1 and iNOS by primary human microglia (1 × 10^6 cells), cells were seeded in PLL-coated plates. Twenty-four hours post-seeding cells were treated with: 0% serum DMEM alone, or exposed to rSELP (1.5 µg/ml), or exposed to rSELP and SELPi (0.5 µM), or exposed to rSELP and anti-PSGL-1 neutralizing antibody (2.5 µg/ml), or exposed to rSELP and anti-CD44 neutralizing antibody (2.5 µg/ml), or exposed to rSELP and anti-CD24 neutralizing antibody (2.5 µg/ml) for 48 h.
Real-time PCR. The expression level of target genes was assessed by SYBR green real-time PCR (StepOne plus, Life Technologies) and normalized to GAPDH housekeeping gene. Primers used were: […]
(Real-time PCR tracks product formation cycle by cycle.)

For assay [2], the system named is murine GB cells (GL261, iAGR53, PNp53, EGFRviii-shP16). The assay can be described thus: 3D spheroid invasion in Matrigel, murine GB cells co-cultured with murine microglia. It is filed as cell-based. The procedure: as §1

Results on 1 compound are retold here after patent US20230303712A1, “METHODS OF TREATING GLIOBLASTOMA” (Ramot at Tel-Aviv University Ltd., priority 2020, published 2023).

The structures appear in SMILES notation. Entries after “also recorded” stand apart in the source; their conditions may differ.

One may read the IC50 as the concentration that gives 50% inhibition.

For `COc1ccc(C2CC(c3c(O)cc(C)oc3=O)=NCCS2)c(OC)c1` (centres unmarked) [SELPi, 3-[7-(2,4-Dimethoxyphenyl)-2,3,6,7-tetrahydro-1,4-thiazepin-5-yl]-4-hydroxy-6-methyl-2H-pyran-2-one], the 3D spheroid invasion result in assay [1] (PD-GB4 GB cells with human microglia, 0.5 µM SELPi or SELP knockdown, 72 h) is recorded as “reduced invasion”. In assay [1] (human U251, PD-GB 1, PD-GB3), the “3D spheroid invasion, further human GB models” value is “effect of SELPi on GB spheroids was observed”. Moreover, the “inhibiting effect on E-Selectin” value on E-Selectin is listed as “no inhibiting effects”. The IC50 on P-Selectin (P-Selectin inhibition) is 1.97 µM. Besides, the “blocking of SELP-binding” value on P-Selectin (in vitro and in vivo) is “block SELP-binding”. Further, the “rescue of rSELP effects on ARG1, iNOS, IL-10, TGF-β expression” value with primary human microglia was “rescue the effects of rSELP; also recorded: rescued rSELP effects”. Moreover, in assay [2] (mesenchymal, proneural and classical lenti-induced murine GB subtypes), the “invasion of GB spheroids co-cultured with murine microglia” value is “significantly reduced the invasion”. The “3D spheroid invasion, murine GL261” value in assay [2] (murine GL261 GB model) is recorded as “effect of SELPi on GB spheroids was observed”.
